Measurements published in PMC6349357, “Computational and experimental analysis of bioactive peptide linear motifs in the integrin adhesome” (PLoS ONE, 2019).
Marks after values point to notes of the source that are not given here.

Assays:
resting platelets = assay: Platelet aggregation induced by peptide in resting washed platelets (activation); format: cell-based, human (healthy volunteers); conditions: for Activation, 5μM / Activation, 20μM: S3 Table, n=3; for Activation, 5μM: peptide 5 μM; for Activation, 20μM: peptide 20 μM; for Activation: platelet aggregation in resting platelets after 6 minutes incubation with peptide, pal-peptides 20 μM, tat-peptides 50 μM, optical density, aggregometer, mean, n>=3; for Aggregation before TRAP activation, donor d: replicate donor d; for Aggregation before TRAP activation, donor f: replicate donor f; for Aggregation before TRAP activation, donor g: replicate donor g
Outline: (§1)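 Washed human platelets (from ACD blood, PGE1-treated) were used at 3x10^5/μl in buffer A pH 7.4 with 1.8 mM CaCl2. Light-transmission aggregometry ran at 37°C with stirring at 1100 rpm. Peptide or buffer was added at 2 min, TRAP 6 min later, and aggregation was recorded for a further 7 min.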

TRAP-activated platelets = assay: Inhibition of TRAP-induced platelet aggregation after pre-incubation with peptide; format: cell-based, human (healthy volunteers); conditions: for Aggregation after TRAP, peptide alone 1x (A 1x / B 1x) / Aggregation after TRAP, peptide alone 2x (A 2x / B 2x): TRAP 2 μM after 6 minutes pre-incubation, mean n = 3; for Aggregation after TRAP, peptide alone 1x (A 1x / B 1x): 4 μM pal-peptides, 10 μM tat-peptides; for Aggregation after TRAP, peptide alone 2x (A 2x / B 2x): double concentration of 4 μM (pal) / 10 μM (tat); for Aggregation after TRAP activation, donor d: replicate donor d; for Aggregation after TRAP activation, donor f: replicate donor f; for Aggregation after TRAP activation, donor g: replicate donor g
Outline: as §1

[1] = format: physicochemical
Experimental: Peptides were stored in powder form at -80°C. Prior to use, they were left at room temperature for one hour. They were then mixed with a specific volume of deionised water to bring them to a 1mM concentration and were then aliquoted and frozen at -80°C. They were thawed a single time before use and discarded after an experiment. Peptides which were not soluble in deionised water (pal-APTNEFYA, pal-LEEDDEEGE, pal-TNITYRGT and pal-KLLITIHDRKE) were dissolved in a 10% DMSO and 90% deionised water solution (leading to a final concentration of 0.2% DMSO when combined with platelets, see below). These peptides were further diluted during platelet aggregations.

[2] = test system: tyrosine phosphorylation in platelets; assay: Phosphotyrosine western blot (4G10) of platelets treated with peptide; format: cell-based, human (healthy volunteers); set-up: key to Phospho: R: in resting platelets; A: after TRAP activation; conditions: phosphorylation changes associated with peptide treatment; pal 20 μM, tat 50 μM, TRAP 4 μM
Experimental: A platelet concentration of 3x10^5 /μl was used when performing standard aggregations and a concentration of 1x10^6 /μl was used for sample preparation for western blot analysis. The extent of platelet aggregation was measured by quantifying the optical density of the samples using the Bio-Data PAP-8 aggregometer (platelet aggregation profiler, Horsham, PA, USA). A temperature of 37°C was maintained and samples were stirred using magnets spinning at 1100 rpm. 200 μl of washed platelets was added to each aggregation tube. Different volumes of buffer, peptide and TRAP were added to achieve the desired concentrations. Peptide/buffer was added to each well after two minutes. TRAP, with a final concentration depending on the experiment, was added 6 minutes later and data was collected for an additional 7 minutes.
After the aggregation step, tubes were immediately placed on ice. 27 μl of lysis buffer was then added and the tube was vortexed vigorously. Lysates were left on ice for one hour and vortexed frequently. Proteins were then centrifuged at 14,000 rcf for 10 minutes to remove debris. Samples were then mixed with 2x sample buffer. 50 μl each sample was added to 50 μl of sample buffer. The protein was then denatured by heating to 95°C for 5 minutes. 10 μl of lysate was kept for protein quantification. All samples and lysates were frozen at -80°C.
The Bradford assay was then performed on the lysates to determine protein concentration. Protein concentrations were measured using the Bio-Rad DC Protein Assay. A calibration was created using samples containing a known concentration of bovine serum albumin. These were prepared in advance by sequential dilutions with final concentrations of 1.5mg/ml, 1mg/ml, 0.8mg/ml, 0.6mg/ml, 0.4mg/ml, 0.2mg/ml, 0mg/ml. Samples were then dispensed into a 96 well plate and the Bio-Rad DC reagents were added as described in the protocol. Samples were left to rest for 15 minutes and were then read using 690 0.15 mode on the Wallac plate reader. A standard curve was calculated from the standard samples of known concentration and the y = ax+b equation was used to determine the concentration of the other samples.
Sodium Dodecyl Sulfate Polyacrylamide Gel Electrophoresis (SDS-PAGE) was performed to separate proteins by molecular weight. Polyacrylamide gels were prepared (see Reagents section). Samples or molecular markers were loaded in volumes to give 20 μg of protein. The gels were then run for approximately 80 minutes or until the samples reached the end of the gel. The proteins were then transferred to polyvinylidene difluoride (PVDF) membranes using a Bio-Rad Wet Blot Transfer Cell apparatus. During the transfer the membranes were submerged in 1x transfer buffer (10% 10x transfer buffer, 70% deionised water and 20% methanol). Transfer was performed either overnight at 40 volts at 4°C, or at 100 volts for 1 hour cooled with an ice block. After the transfer the membranes were blocked for 1 hour using 3% bovine albumin serum (BSA) dissolved in TBS-T. Membranes were incubated with 4G10 antibody with a 1:1000 dilution. Unbound primary antibody was washed off with TBS-T three times for 5 minutes each. Membranes were then incubated with anti-mouse IgG secondary antibody (Millipore) with a dilution of 1:30,000. Membranes were submerged in chemiluminescence ECL solution (Thermo Scientific). They were then measured using the western blot developer UVP. One image was taken every 80 seconds for 40 minutes. Numeric data was extracted from selected blots using ImageJ.

[3] = S3 Table, peptide 5 μM, aggregation after TRAP, n=3
[4] = S3 Table, peptide 20 μM, aggregation after TRAP, n=3
[5] = platelet aggregation induced by 4 μM TRAP in platelets pre-incubated with peptide (low value = inhibition), pal-peptides 20 μM, tat-peptides 50 μM, mean, n>=3
[6] = TRAP 4 μM, pal 20 μM, tat 50 μM

Row | Solubility in deionised water [1] | Substance | Activation, 5μM (resting platelets; unit assumed) | Activation, 20μM (resting platelets; unit assumed) | Activation (resting platelets; unit assumed) | Aggregation before TRAP activation, donor d (resting platelets; pal 20 μM, tat 50 μM) | Aggregation before TRAP activation, donor f (resting platelets; pal 20 μM, tat 50 μM) | Aggregation before TRAP activation, donor g (resting platelets; pal 20 μM, tat 50 μM) | Platelet aggregation remaining after TRAP (low = inhibition) (TRAP-activated platelets; [3]) | Platelet aggregation remaining after TRAP (low = inhibition) (TRAP-activated platelets; [4]) | Aggregation after TRAP, peptide alone 1x (A 1x / B 1x) (TRAP-activated platelets) | Aggregation after TRAP, peptide alone 2x (A 2x / B 2x) (TRAP-activated platelets) | Aggregation after TRAP activation, donor d (TRAP-activated platelets; [6]) | Aggregation after TRAP activation, donor f (TRAP-activated platelets; [6]) | Aggregation after TRAP activation, donor g (TRAP-activated platelets; [6]) | Platelet aggregation remaining after TRAP (low = inhibition) (TRAP-activated platelets; [5]) | further results
1 | not soluble | pal-APTNEFYA [pal-SDC4_tail, N-terminally palmitylated syndecan-4 tail peptide] | 2% | 2% | 7% | 2 | 4 | 15 | 61 | 34 | 27.67 | 24.67 | 9 | 54 | 41 |  | Activation, donor 14 06 13 (resting platelets; replicate 14_06_13, SDC4 peptides and controls, 20 μM, unit assumed): 2%; Activation, donor 18_06_13 (resting platelets; replicate 18_06_13, SDC4 peptides and controls, 20 μM, in % (unit assumed)): 3; Activation, donor 20_06_13 (resting platelets; replicate 20_06_13, SDC4 peptides and controls, 20 μM, in % (unit assumed)): 2; Activation, donor 20 08 13 (resting platelets; replicate 20_08_13, SDC4 peptides and controls, 20 μM, unit assumed): 5%; Activation, donor 22_08_13_DONOR1 (resting platelets; replicate 22_08_13_DONOR1, SDC4 peptides and controls, 20 μM): 2; Activation, donor 22_08_13_DONOR2 (resting platelets; replicate 22_08_13_DONOR2, SDC4 peptides and controls, 20 μM): 2; Aggregation (inhibition effects of syndecan-derived peptides) (TRAP-activated platelets; S2 Table A, peptide 20 μM, TRAP 4 μM, mean, n=6): 34; Summary of effects of SDC4-derived palmitylated peptides and scrambled controls, 20μM (TRAP-activated platelets; S2 Table B / S2 Fig, 20 μM, activation of resting platelets and inhibition of aggregation induced by 4 μM TRAP, in words): Inhibitor; Platelet aggregation after TRAP activation (TRAP-activated platelets; [5]): 34 ^*; Inhibition, donor 14_06_13 (TRAP-activated platelets; replicate 14_06_13, peptide 20 μM, TRAP 4 μM): 40; Inhibition, donor 18_06_13 (TRAP-activated platelets; replicate 18_06_13, peptide 20 μM, TRAP 4 μM): 67; Inhibition, donor 20_06_13 (TRAP-activated platelets; replicate 20_06_13, peptide 20 μM, TRAP 4 μM): 51; Inhibition, donor 20_08_13 (TRAP-activated platelets; replicate 20_08_13, peptide 20 μM, TRAP 4 μM): 11; Platelet aggregation remaining after TRAP (low = inhibition) (TRAP-activated platelets; replicate 22_08_13_DONOR1, peptide 20 μM, TRAP 4 μM): 6; Platelet aggregation remaining after TRAP (low = inhibition) (TRAP-activated platelets; replicate 22_08_13_DONOR2, peptide 20 μM, TRAP 4 μM): 34
2 | not soluble | pal-KLLITIHDRKE-(NH2) [pal-ITGB3_JM, N-terminally palmitylated ITGB3 juxtamembrane peptide] |  |  | 4% | 4 | 3 | 5 |  |  |  |  | 76 | 77 | 68 | 73 | 
3 |  | pal-KVGFFKR-(NH2) [pal-ITGA2B_JM, N-terminally palmitylated ITGA2B juxtamembrane peptide KVGFFKR] | 66% | 62% |  |  |  |  | 73 | 69 | 37.33 | 49.33 |  |  |  | 50 | Activation (resting platelets): 17 ^*; Aggregation before TRAP activation, donor h (resting platelets; replicate donor h, pal 20 μM, tat 50 μM): 30; Aggregation before TRAP activation, donor i (resting platelets; replicate donor i, pal 20 μM, tat 50 μM): 11; Aggregation before TRAP activation, donor j (resting platelets; replicate donor j, pal 20 μM, tat 50 μM): 12; Aggregation after TRAP activation, donor h (TRAP-activated platelets; replicate donor h, TRAP 4 μM, pal 20 μM, tat 50 μM): 52; Aggregation after TRAP activation, donor i (TRAP-activated platelets; replicate donor i, TRAP 4 μM, pal 20 μM, tat 50 μM): 36; Aggregation after TRAP activation, donor j (TRAP-activated platelets; replicate donor j, TRAP 4 μM, pal 20 μM, tat 50 μM): 64; Phospho [2]: R
